Patent US20230062119A1, “USE OF BIOMARKERS IN IDENTIFYING PATIENTS THAT WILL BE RESPONSIVE TO TREATMENT WITH A PRMT5 INHIBITOR” (Merck Sharp & Dohme LLC, priority 2019, published 2023)
Read-outs that look alike come from different tables or passages of the source. Values belong to the molecule of their own block, whether it stands above or below them.

Molecular target: T1, Full-length (FL)-PRMT5-MEP50 enzyme complex (Homo sapiens, UniProt O14744)
T1 construct: Full-length (FL)-PRMT5-MEP50 enzyme complex (recombinant proteins from baculovirus-transfected Sf21 cells: FL-PRMT5; MW=73837 kDa and FL-MEP50; MW=38614); made in house; host or cells: baculovirus-transfected Sf21 insect cells
Assay: PRMT5-MEP50 Enzyme Methylation Assay
Assay type: biochemical
Settings: 1.0 nM PRMT5-MEP50, 75 nM biotinylated peptide, 15 μM SAM
Outline: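 Compound was pre-incubated 60 min at 37°C with 1.0 nM enzyme and 15 μM SAM (final) in 50 mM Bicine pH 8.0, then 75 nM biotinylated H4R3(Me1) peptide was added and reacted 150 min; twenty-point 1:2 titration from 100000 nM, 1% DMSO. Formic acid quench; SAMDI mass spectrometry measured Me1-to-Me2 conversion, EC50 by 4- or 7-parameter regression.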

[1] = one EC50: 4 parameters single site sigmoidal model, EC50 1: first value of 7 parameters biphasic model, read-out: Enzyme Methylation Assay (EC50 or EC50 1)
[2] = second EC50 of 7 parameters biphasic model, read-out: Enzyme Methylation Assay (EC50 2)

T1 sequence (O14744 whole entry): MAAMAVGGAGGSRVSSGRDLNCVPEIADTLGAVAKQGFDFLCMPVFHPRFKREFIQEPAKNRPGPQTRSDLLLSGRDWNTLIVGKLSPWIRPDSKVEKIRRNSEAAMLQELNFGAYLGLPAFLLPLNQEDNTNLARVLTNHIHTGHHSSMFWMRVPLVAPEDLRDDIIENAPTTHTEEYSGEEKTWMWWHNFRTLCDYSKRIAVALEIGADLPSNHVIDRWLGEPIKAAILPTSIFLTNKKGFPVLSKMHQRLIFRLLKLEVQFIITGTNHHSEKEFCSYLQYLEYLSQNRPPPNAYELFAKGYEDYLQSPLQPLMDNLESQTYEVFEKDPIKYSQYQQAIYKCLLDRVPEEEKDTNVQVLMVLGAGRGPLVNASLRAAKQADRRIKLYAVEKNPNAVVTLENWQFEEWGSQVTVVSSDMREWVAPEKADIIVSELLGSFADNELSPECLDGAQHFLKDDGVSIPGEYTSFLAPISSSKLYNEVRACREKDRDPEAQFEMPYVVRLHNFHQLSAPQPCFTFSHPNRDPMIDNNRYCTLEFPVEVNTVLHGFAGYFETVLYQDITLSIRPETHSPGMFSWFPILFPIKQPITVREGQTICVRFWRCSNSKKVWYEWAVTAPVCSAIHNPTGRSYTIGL
T1 sequence (Q9BQA1 whole entry partner): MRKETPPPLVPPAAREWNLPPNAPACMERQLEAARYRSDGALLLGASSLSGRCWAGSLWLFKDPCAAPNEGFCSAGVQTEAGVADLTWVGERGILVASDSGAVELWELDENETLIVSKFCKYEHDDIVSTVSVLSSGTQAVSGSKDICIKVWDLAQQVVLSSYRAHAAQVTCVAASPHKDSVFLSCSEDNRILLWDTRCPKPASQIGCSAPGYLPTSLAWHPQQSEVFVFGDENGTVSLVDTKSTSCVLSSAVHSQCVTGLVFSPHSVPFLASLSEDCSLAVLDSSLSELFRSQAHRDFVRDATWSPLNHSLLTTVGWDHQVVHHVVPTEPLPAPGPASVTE

Structure (SMILES): C[C@]1(CCc2ccc3cc(Br)c(N)nc3c2)C[C@@H](n2ccc3c(N)ncnc32)[C@H](O)[C@]1(C)O [Example 117, (1R,2S,3R,5S)-5-(2-(2-amino-3-bromoquinolin-7-yl)ethyl)-3-(4-amino-7H-pyrrolo[2,3-d]pyrimidin-7-yl)-1,5-dimethylcyclopentane-1,2-diol]
EC50 [1]: 1 nM

Structure (SMILES): C[C@]1(O)[C@@H](O)[C@H](n2ccc3c(N)ncnc32)C[C@]1(O)CCc1ccc2cc(Br)c(N)nc2c1 [Example 118, (1R,2S,3S,4R)-1-(2-(2-amino-3-bromoquinolin-7-yl)ethyl)-4-(4-amino-7H-pyrrolo[2,3-d]pyrimidin-7-yl)-2-methylcyclopentane-1,2,3-triol]
EC50 [1]: 3.2 nM
EC50 [2]: 1590 nM

Structure (SMILES): Cc1ncnc2c1ccn2[C@@H]1O[C@@H]2[C@@H](Nc3ccc4cc(F)c(N)nc4c3)CC[C@]2(O)[C@H]1O [Example 120, (2R,3R,3aS,6S,6aR)-6-((2-amino-3-fluoroquinolin-7-yl)amino)-2-(4-methyl-7H-pyrrolo[2,3-d]pyrimidin-7-yl)hexahydro-3aH-cyclopenta[b]furan-3,3a-diol]
EC50 [1]: 0.6 nM

Structure (SMILES): C[C@]12O[C@@H](n3ccc4c(N)ncnc43)[C@H](O)[C@@]1(O)CC[C@H]2Cc1ccc2cc(F)c(N)nc2c1 [Example 121, (2R,3R,3aS,6S,6aR)-6-((2-amino-3-fluoroquinolin-7-yl)methyl)-2-(4-amino-7H-pyrrolo[2,3-d]pyrimidin-7-yl)-6a-methylhexahydro-3aH-cyclopenta[b]furan-3,3a-diol]
EC50 [1]: 0.4 nM

Structure (SMILES): Cc1ncnc2c1ccn2[C@@H]1O[C@@H]2[C@H](Cc3ccc4cc(Cl)c(N)nc4c3)CC[C@]2(O)[C@H]1O [Example 122, (2R,3R,3aS,6S,6aR)-6-((2-amino-3-chloroquinolin-7-yl)methyl)-2-(4-methyl-7H-pyrrolo[2,3-d]pyrimidin-7-yl)hexahydro-3aH-cyclopenta[b]furan-3,3a-diol]
EC50 [1]: 0.6 nM

Structure (SMILES): Nc1nc2cc(C[C@@H]3CC[C@@]4(O)[C@@H]3O[C@@H](n3ccc5c(N)ncnc53)[C@@H]4O)ccc2cc1F [Example 124, (2R,3R,3aS,6S,6aR)-6-((2-amino-3-fluoroquinolin-7-yl)methyl)-2-(4-amino-7H-pyrrolo[2,3-d]pyrimidin-7-yl)hexahydro-3aH-cyclopenta[b]furan-3,3a-diol]
EC50 [1]: 0.3 nM

Structure (SMILES): Cc1cc2ccc(C[C@@H]3CC[C@@]4(O)[C@@H]3O[C@@H](n3ccc5c(N)ncnc53)[C@@H]4O)cc2nc1N [Example 125, (2R,3R,3aS,6S,6aR)-6-((2-amino-3-methylquinolin-7-yl)methyl)-2-(4-amino-7H-pyrrolo[2,3-d]pyrimidin-7-yl)hexahydro-3aH-cyclopenta[b]furan-3,3a-diol]
EC50 [1]: 0.8 nM

Structure (SMILES): Cc1nc(N)nc2c1ccn2[C@@H]1O[C@@H]2[C@H](Cc3ccc4cc(Br)c(N)nc4c3)CC[C@]2(O)[C@H]1O [Example 127, (2R,3R,3aS,6S,6aR)-6-((2-amino-3-bromoquinolin-7-yl)methyl)-2-(2-amino-4-methyl-7H-pyrrolo[2,3-d]pyrimidin-7-yl)hexahydro-3aH-cyclopenta[b]furan-3,3a-diol]
EC50 [1]: 0.7 nM

Structure (SMILES): Nc1nc2cc(O[C@H]3CC[C@@]4(O)[C@@H]3O[C@@H](n3ccc5c(N)ncnc53)[C@@H]4O)ccc2cc1C(F)F [Example 128, (2R,3R,3aS,6S,6aR)-6-((2-amino-3-(difluoromethyl)quinolin-7-yl)oxy)-2-(4-amino-7H-pyrrolo[2,3-d]pyrimidin-7-yl)hexahydro-3aH-cyclopenta[b]furan-3,3a-diol]
EC50 [1]: 0.7 nM

Structure (SMILES): Cc1ncnc2c1ccn2[C@@H]1O[C@@H]2[C@H](Oc3ccc4cc(Br)c(N)nc4c3)CC[C@]2(O)[C@H]1O [Example 129, (2R,3R,3aS,6R,6aR)-6-((2-amino-3-bromoquinolin-7-yl)oxy)-2-(4-methyl-7H-pyrrolo[2,3-d]pyrimidin-7-yl)hexahydro-3aH-cyclopenta[b]furan-3,3a-diol]
EC50 [1]: 33.9 nM
EC50 [2]: 31600 nM

Structure (SMILES): Nc1ncc2c(F)cn([C@@H]3O[C@@H]4[C@@H](Oc5ccc6cc(Br)c(N)nc6c5)CC[C@]4(O)[C@H]3O)c2n1 [Example 130, (2R,3R,3aS,6S,6aR)-6-((2-amino-3-bromoquinolin-7-yl)oxy)-2-(2-amino-5-fluoro-7H-pyrrolo[2,3-d]pyrimidin-7-yl)hexahydro-3aH-cyclopenta[b]furan-3,3a-diol]
EC50 [1]: 0.6 nM

Structure (SMILES): Cc1ncnc2c1ccn2[C@@H]1O[C@@H]2[C@@H](Cc3ccc4cc(Cl)c(N)nc4c3)CC[C@]2(O)[C@H]1O [Example 131, (2R,3R,3aS,6R,6aR)-6-((2-amino-3-chloroquinolin-7-yl)methyl)-2-(4-methyl-7H-pyrrolo[2,3-d]pyrimidin-7-yl)hexahydro-3aH-cyclopenta[b]furan-3,3a-diol]
EC50 [1]: 0.6 nM

Structure (SMILES): Cc1ncnc2c1ccn2[C@@H]1O[C@@H]2[C@H](Cc3ccc4cc(Br)c(N)nc4c3)OC[C@]2(O)[C@H]1O [Example 133, (2R,3R,3aS,6S,6aR)-6-((2-amino-3-bromoquinolin-7-yl)methyl)-2-(4-methyl-7H-pyrrolo[2,3-d]pyrimidin-7-yl)tetrahydrofuro[3,4-b]furan-3,3a(4H)-diol]
EC50 [1]: 0.8 nM

Structure (SMILES): Cc1ncnc2c1ccn2[C@@H]1O[C@@H]2[C@@H](Cc3ccc4cc(Br)c(N)nc4c3)OC[C@]2(O)[C@H]1O [Example 134, (2R,3R,3aS,6R,6aR)-6-((2-amino-3-bromoquinolin-7-yl)methyl)-2-(4-methyl-7H-pyrrolo[2,3-d]pyrimidin-7-yl)tetrahydrofuro[3,4-b]furan-3,3a(4H)-diol]
EC50 [1]: 3.5 nM

Structure (SMILES): Cc1cn([C@@H]2O[C@@H]3[C@H](Cc4ccc5cc(Br)c(N)nc5c4)OC[C@]3(O)[C@H]2O)c2ncnc(N)c12 [Example 135, (2R,3R,3aS,6S,6aR)-6-((2-amino-3-bromoquinolin-7-yl)methyl)-2-(4-amino-5-methyl-7H-pyrrolo[2,3-d]pyrimidin-7-yl)tetrahydrofuro[3,4-b]furan-3,3a(4H)-diol]
EC50 [1]: 0.4 nM

Structure (SMILES): Nc1nc2cc(C[C@@H]3CC[C@@]4(O)[C@@H]3O[C@@H](n3ccc5c(N)ncnc53)[C@@H]4O)ccc2cc1C(F)(F)F [compound 76, (2R,3R,3aS,6S,6aR)-6-((2-amino-3-(trifluoromethyl)quinolin-7-yl)methyl)-2-(4-amino-7H-pyrrolo[2,3-d]pyrimidin-7-yl)hexahydro-3aH-cyclopenta[b]furan-3,3a-diol]
EC50 [1]: 0.9 nM

The remaining molecules from weak to strong by EC50 [1], led by results:

EC50 [1]: 3.9 nM
EC50 [2]: 3310 nM
Structure (SMILES): Nc1nc2cc(CC3OC[C@@]4(O)C3C[C@@H](n3ccc5c(N)ncnc53)[C@@H]4O)ccc2cc1Br (stereo partly drawn) [Example 132, (3aS,4S,5R)-1-((2-amino-3-bromoquinolin-7-yl)methyl)-5-(4-amino-7H-pyrrolo[2,3-d]pyrimidin-7-yl)tetrahydro-1H-cyclopenta[c]furan-3a,4(3H)-diol]

EC50 [1]: 2.4 nM
EC50 [2]: 661 nM
Structure (SMILES): C[C@@]1(CCc2ccc3cc(F)c(N)nc3c2)C[C@@H](n2ccc3c(N)ncnc32)[C@H](O)[C@@H]1O [Example 116, (1S,2R,3R,5R)-3-(2-(2-amino-3-fluoroquinolin-7-yl)ethyl)-5-(4-amino-7H-pyrrolo[2,3-d]pyrimidin-7-yl)-3-methylcyclopentane-1,2-diol]

EC50 [1]: 1 nM
EC50 [2]: 116 nM
Structure (SMILES): Nc1nc2cc(O[C@H]3CC[C@@]4(O)[C@@H]3C[C@@H](n3ccc5c(N)ncnc53)[C@@H]4O)ccc2cc1Br [Example 119, (1S,2R,3aR,4S,6aR)-4-((2-amino-3-bromoquinolin-7-yl)oxy)-2-(4-amino-7H-pyrrolo[2,3-d]pyrimidin-7-yl)hexahydropentalene-1,6a(1H)-diol 2,2,2-trifluoroacetate]

EC50 [1]: 1 nM
Structure (SMILES): Cc1ncnc2c1ccn2[C@@H]1O[C@@H]2[C@H](Cc3ccc4cc(F)c(N)nc4c3)CC[C@]2(O)[C@H]1O [Example 123, (2R,3R,3aS,6S,6aR)-6-((2-amino-3-fluoroquinolin-7-yl)methyl)-2-(4-methyl-7H-pyrrolo[2,3-d]pyrimidin-7-yl)hexahydro-3aH-cyclopenta[b]furan-3,3a-diol]

EC50 [1]: 0.6 nM
Structure (SMILES): C[C@]1(CCc2ccc3cc4c(nc3c2)NCC4)C[C@@H](n2ccc3c(N)ncnc32)[C@H](O)[C@@H]1O [Example 126, (1S,2R,3S,5R)-5-(4-amino-7H-pyrrolo[2,3-d]pyrimidin-7-yl)-3-(2-(2,3-dihydro-1H-pyrrolo[2,3-b]quinolin-7-yl)ethyl)-3-methylcyclopentane-1,2-diol]

EC50 [1]: 0.5 nM
Structure (SMILES): Nc1nc2cc(C[C@@H]3OC[C@@]4(O)[C@@H]3O[C@@H](n3ccc5c(N)ncnc53)[C@@H]4O)ccc2cc1Br [Example 136, (2R,3R,3aS,6S,6aR)-6-((2-amino-3-bromoquinolin-7-yl)methyl)-2-(4-amino-7H-pyrrolo[2,3-d]pyrimidin-7-yl)tetrahydrofuro[3,4-b]furan-3,3a(4H)-diol]

EC50 [1]: 0.5 nM
Structure (SMILES): Nc1nc2cc(C[C@@H]3CC[C@@]4(O)[C@@H]3O[C@@H](n3ccc5c(N)ncnc53)[C@@H]4O)ccc2cc1C(F)F [Example 137, (2R,3R,3aS,6S,6aR)-6-((2-amino-3-(difluoromethyl)quinolin-7-yl)methyl)-2-(4-amino-7H-pyrrolo[2,3-d]pyrimidin-7-yl)hexahydro-2H-cyclopenta[b]furan-3,3a-diol]

EC50 [1]: 0.4 nM
EC50 [2]: 255 nM
Structure (SMILES): Cc1ncnc2c1ccn2[C@@H]1O[C@@H]2[C@@H](Oc3ccc4cc(C(F)F)c(N)nc4c3)CC[C@]2(O)[C@H]1O [Example 115, (2R,3R,3aS,6S,6aR)-6-((2-amino-3-(difluoromethyl)quinolin-7-yl)oxy)-2-(4-methyl-7H-pyrrolo[2,3-d]pyrimidin-7-yl)hexahydro-3aH-cyclopenta[b]furan-3,3a-diol]
